Usually Kd stands for a measure of binding affinity in units of concentration.

Data on 10 compounds can be found in article PMC5330312, “Design and engineering of water-soluble light-harvesting protein maquettes” (Chemical Science, 2016).

Data set [1] relates to His-containing maquette. The experiment in a line: Absorption spectra of porphyrin with His-containing maquette. Format: binding. To be noted: 4 μM porphyrin, 2 μM maquette. The source says: (§1) The structural requirements for tetrapyrrole self-assembly in aqueous solution were first tested with Zn tetraphenyl porphyrins. The solubility in polar and non-polar environments was adjusted through combinations of hydrophobic and hydrophilic groups at the meso positions. Zn tetrapyrrole pigments discussed in this text are abbreviated with bold numbers, with full chemical names given in the Experimental section and structures illustrated in the figures. […] Thus, one non-polar edge of a Zn porphyrin was sufficient to provide facile binding.
(§2) Blue, green and red spectra correspond to no maquette, His-free maquette or His-containing maquette, respectively. Panel (A) and (B) show spectra for 4 μM porphyrins (1) or (2) respectively with 2 μM maquette, when present.
(§3) Protein solutions were prepared in CHES buffer (20 mM, 150 mM KCl, pH 9.0). Binding was monitored by UV/Vis Soret band absorbance on a Varian Cary-50 spectrophotometer at room temperature in a 1 cm path quartz cuvette. Secondary structure was monitored by CD spectroscopy (Aviv Model 410) at 25 °C with a 1 mm path quartz cuvette. Thermal denaturation was followed by monitoring the ellipticity at 222 nm every 5 °C after 15 minutes of equilibration. Melting temperatures were calculated using a Boltzmann equation with one term for each observed transition.

The test system of data set [2] is His-free control maquette. Nature of the data set: Absorption spectra of porphyrin with His-free control maquette. Type of data set: binding. The settings on record: 4 μM porphyrin, 2 μM maquette.
Text: as §1, §2, §3

Data set [3] is described as follows: Water solubility of the tetrapyrrole (qualitative). Type of data set: physicochemical.
The subject of data set [4] is His-containing four-helix maquette (histidines at positions 7 and 112). The experiment in a line: Cofactor binding titration into His maquette, UV/Vis spectra analysed by SVD. The settings on record: for comparative binding affinity, in words: maquette, Fig. 4; for Kd: CHES buffer pH 9.0, 25 °C, SVD fit of spectral titration, read-out: Kd (dissociation constant for each His site).
Text: To determine the acceptable range and pattern of hydrophobic vs. hydrophilic perimeters for Zn porphyrins, we synthesized all permutations of phenyl and carboxyphenyl tetra meso substituents (Fig. 3 and 4). The visible spectral changes that occurred as these porphyrins were titrated into a His maquette solution were fitted to a simple binding model with a single dissociation constant (K d) for each His site using singular value decomposition.[16] […] At least one hydrophobic and one hydrophilic group substitution is necessary for porphyrin ligating to the maquettes with nanomolar affinities.
as §3
Pigment stock solutions were weighed out and solubilized in dimethylsulfoxide to give concentrations of 1 mM Zn porphyrins, 1 mM chlorin (11), 500 μM chlorin (12), and 2 mM chlorin (13). Binding of Zn porphyrins shift the Soret peak from 422 nm to 432 nm. Binding of chlorins shift the Soret band from 415 nm to 423 nm for (12), 411 nm to 425 nm for (13), and 409 nm to 417 nm for (11). Dissociation constants (K d values) were determined as follows. To 1 ml of protein solution at 25 °C, 1 μl additions of 0.2 (porphyrin) or 0.1 (chlorin) equivalent aliquots were added successively to obtain a spectrum from 300 to 700 nm. At 1 equivalent of cofactor the DMSO concentration is 1%. Titrations typically ended at 4 equivalents of cofactor. […] The amplitudes of the first two principle components as a function of total pigment added fit well to a mathematical model of a single dissociation constant for each protein binding site to generate fit spectral extinction coefficients at each wavelength for the unbound and bound pigment spectra as well as values and error estimates for the dissociation constants.

The test system of data set [5] is protein maquette. Nature of the data set: Stopped-flow mixing of tetrapyrrole and maquette (binding kinetics). The settings on record: for binding speed, in words: stopped-flow mixing. As for the experimental part: Tetrapyrrole and protein were added to separate syringes of an OLIS RSM 1000 stopped flow spectrophotometer, which takes a full visible spectrum every millisecond through a 2 cm flow cell after rapid (∼2 ms deadtime) mixing. Temperature was controlled with a Fischer-Scientific IsoTemp 3031 water bath. Individual wavelengths were selected for further kinetic analysis. All experiments were performed in triplicate, and the data were averaged together for further analysis.
Title: Design and engineering of water -soluble light-harvesting protein maquettes Goutham Kodali, Joshua A. Mancini, Lee A. Solomon, Tatiana Esipova, Nicholas Roach, Christopher J. Hobbs, Pawel Wagner, Olga A. Mass, Kunche Aravindu, Jonathan E. Barnsley, Keith C. Gordon, David L. Officer, P. Leslie Dutton and Christopher C. Moser*
Figure S1: Proliferating carbox ylic groups on the 15- porph yrin substituent leads to faster […]
Conditions: 2 µ M of protein maquette in 20 mM CHES, 150 mM KCl mixed with one equivalent of porphyrin, either 5- phen yl-15-carbox y phen ylporph yrin [9] (red) or 5- phen yl -15- Newkome phen ylporphyrin [10] (green).
Normalized absorbance i ncreas e with time in seco nds.

Data set [6] has as its system maquette. Nature of the data set: Thermal denaturation of maquette by circular dichroism at 222 nm. The settings on record: 2 μM maquette with 2 equivalents of cofactor. As for the experimental part: Fig. 7 Thermal stability of the maquette increased upon tetrapyrrole binding. Circular dichroism at 222 nm monitors alpha helical folding for 2 μM maquette without (blue) or with (red) 2 equivalents of (11) as a function of temperature.
as §3

Take `O=S(=O)([O-])c1ccc(-c2c3nc(c(-c4ccc(S(=O)(=O)[O-])cc4)c4ccc([n-]4)c(-c4ccc(S(=O)(=O)[O-])cc4)c4nc(c(-c5ccc(S(=O)(=O)[O-])cc5)c5ccc2[n-]5)C=C4)C=C3)cc1.[Zn+2].[Zn+2].[Zn+2]` [compound 1, Zn(II) 5,10,15,20-tetra(4-sulphonatophenyl)porphyrin]: in data set [1], the “association with His-containing maquette (Soret spectral change)” value is “does not associate with either maquette”. Further, the “association with His-free maquette (Soret spectral change)” value in data set [2] is on record as “does not associate with either maquette”. The “water solubility, in words” value in data set [3] was “highly water-soluble”.

Take `O=S(=O)([O-])c1ccc(-c2c3nc(c(-c4ccc(S(=O)(=O)[O-])cc4)c4ccc([n-]4)c(-c4ccc(S(=O)(=O)[O-])cc4)c4nc(c(-c5ccccc5)c5ccc2[n-]5)C=C4)C=C3)cc1.O=S(=O)([O-])c1ccc(-c2c3nc(c(-c4ccc(S(=O)(=O)[O-])cc4)c4ccc([n-]4)c(-c4ccc(S(=O)(=O)[O-])cc4)c4nc(c(-c5ccccc5)c5ccc2[n-]5)C=C4)C=C3)cc1.[Zn+2].[Zn+2].[Zn+2].[Zn+2].[Zn+2]` [compound 2, Zn(II) 5,10,15-tri(4-sulphonatophenyl)-5-phenylporphyrin]: the “association with His-containing maquette (Soret spectral change)” value in data set [1] is recorded as “indicative of histidine ligation”. In addition, the “association with His-free maquette (Soret spectral change)” value in data set [2] was “partial association of the tetrapyrrole with the maquette”.

Consider `C1=Cc2nc1c(-c1ccccc1)c1ccc([n-]1)c(-c1ccccc1)c1nc(c(-c3ccccc3)c3ccc([n-]3)c2-c2ccccc2)C=C1.[Zn+2]` [compound 3, Zn(II) 5,10,15,20-tetraphenylporphyrin, reference compound], for which the “comparative binding affinity, in words” value in data set [4] was “too weak to measure accurately”.

For `O=C(O)c1ccc(-c2c3nc(c(-c4ccccc4)c4ccc([n-]4)c(-c4ccccc4)c4nc(c(-c5ccccc5)c5ccc2[n-]5)C=C4)C=C3)cc1.[Zn+2]` [compound 4, Zn(II) 5-4-(carboxyphenyl)-10,15,20-triphenylporphyrin], the “affinity relative to (5), (6) and (7)” value in data set [4] (His maquette, estimated) was “about two orders of magnitude tighter”.

For `O=C(O)c1ccc(-c2c3nc(c(-c4ccc(C(=O)O)cc4)c4ccc([n-]4)c(-c4ccc(C(=O)O)cc4)c4nc(c(-c5ccc(C(=O)O)cc5)c5ccc2[n-]5)C=C4)C=C3)cc1.[Zn+2]` [compound 8, Zn(II) 5,10,15,20-tetra(4-carboxyphenyl)porphyrin], in data set [4], the “comparative binding affinity, in words” value is “too weak to measure accurately”.

As to `O=C(O)c1ccc(-c2c3nc(cc4ccc([n-]4)c(-c4ccccc4)c4nc(cc5ccc2[n-]5)C=C4)C=C3)cc1.[Zn+2]` [compound 9, Zn(II) 5-phenyl-15-(p-carboxyphenyl)porphyrin], the “time for binding equilibrium to reach completion” value in data set [5] (stopped flow, 2 µM maquette, one equivalent of porphyrin, 20 mM CHES, 150 mM KCl) worked out at 20 min.

For the compound `Cc1ccc(-c2c3nc(cc4ccc([nH]4)c(-c4ccc(C(=O)O)cc4)c4nc(cc5ccc2[nH]5)C(C)(C)C4)C=C3)cc1` [compound 11, 15-(4-carboxyphenyl)-17,18-dihydro-18,18-dimethyl-5-p-tolylporphyrin], in data set [5], the “binding speed, in words” value is recorded as “binds much faster than the similarly substituted porphyrin (9)”. The “structure stabilization corresponding to the Tm shift” value in data set [6] was determined as 6.8 kcal mol^–1. Moreover, the “thermal mid point transition of α-helical structure (Tm) upon chlorin binding” value in data set [6] (46 °C without cofactor) worked out at 61 °C. The dissociation constant (Kd) in data set [4] (His maquette) worked out at 80 ± 10 nM.

Regarding `CC1(C)Cc2nc1cc1cc(C#Cc3ccccc3)c(cc3nc(cc4ccc([n-]4)c2-c2ccc(C(=O)O)cc2)C=C3)[n-]1.[Zn+2]` [compound 12, Zn(II) 15-(4-carboxyphenyl)-17,18-dihydro-18,18-dimethyl-3-(phenylethynyl)porphyrin], the “lowering of affinity relative to (11)” value in data set [4] (His maquette, Kd of (12) vs (11)) came to 4.5 fold.

`C=Cc1c(C)c2[n]3c1=CC1=[N+]4C(=Cc5c(C)c6c7[n]5[Zn-2]34[N+]3=C(C=2)[C@@H](C)[C@H](CCC(=O)O)C3=C7[C@@H](C(=O)OC)C6=O)C(CC)=C1C` (stereo partly drawn) [compound 13, Zn pheophorbide a]: the Kd in data set [4] (His maquette) amounted to 4 ± 3 nM.

For the compound “Zn(II) 5-phenyl-15-(p-carboxyphenyl)porphyrin with first generation Newkome dendrimer [compound 10]”, the “binding speed, in words” value in data set [5] is reported as “few ms timescale”. Besides, the Kd in data set [4] (His maquette) is 250 ± 47 nM. Also, in data set [3], the “water solubility, in words” value was “substantially increased the water solubility”.
